The test system of experiment [1] is MC38 murine colon adenocarcinoma. The experiment can be described thus: Therapeutic efficacy in combination with doxorubicin in MC38 model. It counts as in vivo, C57BL/6 mice. How it is done: Therapeutic efficacy of PNP-R848 in combination with chemotherapy was also assessed (FIG. 8). […] Despite some promising initial results, all mice treated with doxorubicin, both with or without PNP-R848, succumbed after re-challenge with a 3-fold higher dose of cancer cells.
Therapeutic efficacy in combination with doxorubicin. Mice were implanted with 1 × 10^6 MC38 cells subcutaneously into the right flank, which were allowed to grow to an average size of ~30-40 mm^3. The mice received intratumoral treatments every other day for a total of 3 times. The treatment groups included: 8% sucrose (n = 6), free doxorubicin (n = 6), and doxorubicin + PNP-R848 (n = 6). Mice received 63 µg of doxorubicin and 15 µg of R848 per dose. For the combination treatment, doxorubicin and PNP-R848 were mixed pre-administration and the animal received one intratumoral injection containing both. Tumor growth and mouse weight were monitored every other day. Progression-free survival was defined as tumor volume < 200 mm^3. All the mice that rejected the initial MC38 inoculum were re-challenged subcutaneously using 3 × 10^6 MC38 cells on day 56 after the start of the first treatment. Five naive C57BL/6 mice that received the same MC38 tumor cell challenge were used as controls to verify tumorigenicity.

Experiment [2] shares this test system. The experiment can be described thus: Therapeutic efficacy in a murine MC38 tumor model (15 µg and reduced 6 µg R848 dosage). Format: in vivo, C57BL/6 mice. To be noted: for long-term survival rate: intratumoral, every other day x3. How it is done:
The antitumor efficacy of PNP-R848 was evaluated using an MC38 murine colon adenocarcinoma model in immunocompetent C57BL/6 mice (FIG. 4a). Each animal received a subcutaneous injection of 1 × 10^6 MC38 cells in the right flank, and the average tumor size was allowed to reach ~30-40 mm^3. At this point, the mice started receiving one of the following treatments: 8% sucrose as a negative control, free R848, PEG-NP loaded with R848 (PEG-NP-R848), or PNP-R848, each at a drug dosage of 15 µg per injection. Treatments were administered intratumorally every other day for a total of 3 times, after which the mice were monitored regularly to assess therapeutic efficacy (FIGS. 4b-e). […] Tumor growth was considerably delayed when treating with either free R848 or PEG-NP-R848, but there was significant disease progression in a majority of the mice by approximately 30 days after the start of treatment. […] Treatment efficacy was also evaluated when reducing the drug dosage by 2.5-fold to 6 µg of R848 per injection (FIG. 6).
In order to determine if the surviving animals had developed long-term immunity against MC38 cancer cells, the mice were re-challenged with a 3-fold higher inoculum subcutaneously into the right flank 56 days after initiation of the first treatment (FIGS. 4c,d). For the survivors that had been treated with either dose of PNP-R848, the second tumor challenge was rejected at a 100% rate. […] The remainder of the surviving animals in the other groups all rejected the re-challenge, with no tumor progression observed at least 100 days after the start of the initial treatment.
Therapeutic efficacy in a murine MC38 tumor model. Mice were implanted with 1 × 10^6 MC38 cells subcutaneously into the right flank, which were allowed to grow to an average size of ~30-40 mm^3. The mice were then intratumorally treated every other day for a total of 3 times. […] Tumor growth and mouse weight were monitored every other day. […]
Therapeutic efficacy in a murine MC38 tumor model at a reduced R848 dosage. […] Tumor growth and mouse weight were monitored every other day. […]

Consider `COc1cccc2c1C(=O)c1c(O)c3c(c(O)c1C2=O)C[C@@](O)(C(=O)CO)C[C@@H]3O[C@H]1C[C@H](N)[C@H](O)[C@H](C)O1` [doxorubicin], for which the survival result in experiment [1] (63 µg doxorubicin intratumoral x3) is “prolonged survival, the improvement was modest”. Moreover, in experiment [1] (3-fold higher dose of cancer cells, day 56), the outcome after re-challenge is listed as “succumbed”.
`CCOCc1nc2c(N)nc3ccccc3c2n1CC(C)(C)O` [free R848, Resiquimod]: the long-term survival rate amounted to 62.5% in experiment [2] (6 µg R848 per injection) and 28.6% in experiment [2] (15 µg R848 per injection). Further, in experiment [2] (6-µg dosage, 3-fold higher inoculum, day 56), the “overall survival after the tumor re-challenge” value turned out to be 37.5%.

Values taken from patent US20230310504A1, “PLATELET MEMBRANE COATED NANOPARTICLES AND USES THEREOF” (CELLO THERAPEUTICS, INC., priority 2020, published 2023).
